US4447455A, “Oral urolithiasis remedy” (Madaus and Company, priority 1982, dated 1984)
“Also recorded” adds a separate entry of the source.

Legend:
[1] = acute toxicity / tolerability in the rat; type: in vivo; conditions: alizarin, up to 400 mg/kg
[2] = in vitro crystallization of calcium oxalate
[3] = overall summary of pharmacological and toxicological tests; type: in vivo
[4] = acute toxicity / tolerability in the mouse; type: in vivo; conditions: alizarin, one gram per kilogram
oxalate urolithiasis = test: therapeutic use in oxalate urolithiasis (general statements); type: in vivo, human; conditions: general statement
[5] = test system: edema of the paws of rats; test: anti-inflammatory action: edema of the paws induced by viscarin-carrageenin; type: in vivo, rat; conditions: AMDK 600 mg/kg p.o.; for Edema volume: 10 animals
Protocol: The possibility of any effect on inflammatory reactions was tested on edema of the paws of rats (groups of ten rats each) induced by viscarin-carrageenin. […] The measurement of the course of the edema was performed at 3, 5, 7 and 24 hours after the edematization. […] Where the variances between the experimental and control groups were unequal, the more rigorous t test (according to SNEDECOR) was applied for the judgment.

Molecule: O=C1c2ccccc2C(=O)c2c1ccc(O)c2O [alizarin]
- tolerance of acute administration [1]: tolerated without producing symptoms
- action on the crystallization of calcium oxalate [2]: inhibiting action on the crystallization of calcium oxalate
- tolerance in the acute toxicity test [3]: extremely well tolerated
- tolerance of acute administration [4]: tolerated without producing symptoms
- effect on the formation of stones (oxalate urolithiasis): decided inhibitive effect on the formation of stones
- effectiveness in treatment of urolithiasis (oxalate urolithiasis): decidedly effective
- tolerance (oxalate urolithiasis): easily tolerated; also recorded: very well tolerated

Molecule: Sodium escinate
- Percentage of inhibition (edema) ([5]; 3 hours after edematization): 41.4 Percentage
- Edema volume ([5]; 3 hours after edematization): 46.5 mL
- Percentage of inhibition (edema) ([5]; 5 hours after edematization): 37.2 Percentage
- Edema volume ([5]; 5 hours after edematization): 50.7 mL
- Percentage of inhibition (edema) ([5]; 7 hours after edematization): 39.1 Percentage
- Edema volume ([5]; 7 hours after edematization): 46.6 mL
- Percentage of inhibition (edema) ([5]; 24 hours after edematization): 40.9 Percentage
- Edema volume ([5]; 24 hours after edematization): 14.9 mL
